These results are taken from US20110218515A1, “Methods for Treating Acute Myocardial Infarctions and Associated Disorders” (The Regents of the University of California, priority 2009, published 2011).

The test system of test [1] is ischemia-reperfusion rat model. Kind of test: Serial echocardiography in ischemia-reperfusion MI rats. The test is classed as in vivo, Sprague-Dawley rats. The note with it: for LV ejection fraction at 5 weeks: 5 weeks post-MI, after four weeks feed with 1.2% pirfenidone. The protocol:
In this example, a protocol is described for examining the ventricular function, extent of fibrosis and VT inducibility in an ischemia-reperfusion rat model after pirfenidone treatment. Ventricular function was assessed via echocardiography. VT inducibility was assessed by programmed stimulation and EP study. The electrophysiological properties were assessed using high-resolution optical mapping, and the extent of fibrosis was studied using standard histological techniques.
After baseline echocardiography, thirty male Sprague-Dawley rats, ages 6-10 weeks, underwent myocardial infarction using an ischemia-reperfusion model. Briefly, rats were anesthetized using inhaled isoflurane (5% induction, 2.5% maintenance, O2 output 1 L/min) and positioned supine on an electrically warmed animal surgery platform. Rats were intubated using a 16-gauge i.v. catheter and then ventilated using a Harvard rodent respirator. After a left thoracotomy and pericardiotomy were performed, a 7-0 Ticron suture was introduced into the myocardium, using the left atrial appendage and right outflow tract as landmarks. The depth of entry was 2 mm, which was slightly greater than the level of the left coronary artery. Both suture ends were then threaded through a PE-90 polyethylene tube 6 in. in length to form a “snare loop” around the artery, closed by pulling on the free ends of the suture. […] The suture was then tightened to occlude the artery for 20 minutes and then removed to allow for reperfusion. The chest was then closed with 5-0 prolene suture, and the animal was allowed to recover. After one week and repeat echocardiography, rats were randomized to placebo rodent feed (control group, n=15) or rodent feed mixed with 1.2% pirfenidone (PFD) (treatment group, n=15) for four weeks. All experiments and data analyses were performed with the operator blinded to treatment group.
At baseline, and at 1 wk and 5 wk after infarction, a commercially available high-resolution echocardiographic system (Vevo 660, VisualSonics, Toronto, ON, Canada) equipped with a 25-MHz mechanical transducer was used for echocardiography. Rats were placed supine on a warming platform, and ECG limb electrodes were attached. To minimize ultrasound attenuation, the chests were shaved and cleaned with a chemical hair remover (Nair). Aquasonic 100 gel (Parker Laboratories, Fairfield, N.J.) was applied to the thoracic surface to optimize visibility of the cardiac chambers. Parasternal long-axis and parasternal short-axis two-dimensional views were acquired.
Using the long-axis view, left ventricular (LV) end-systolic and end-diastolic volumes (ESV and EDV), as well as LV ejection fraction (LVEF), were calculated by using frames with the maximal and minimal cross-sectional area and width. The system software utilizes a formula based on a cylindrical-hemiellipsoid model (volume=8*area2÷3÷length). LVEF was calculated using the following formula: (EDV−ESV)/EDV*100. Fractional shortening (FS) was evaluated from the M mode of the parasternal long-axis view at the papillary muscle level on the basis of the percent changes of LV end-diastolic and end-systolic diameters. LV mass was estimated using the following equation at end diastole: LV mass=1.05*(epicardial volume−endocardial volume), where volume is based on the cylindrical-hemiellipsoid model. These evaluations of LV function in the rodent are well validated. Echocardiographic acquisition and analysis were obtained while blinded to the treatment group.

In test [2] the test system is ischemia-reperfusion rat model. Nature of the test: Optical mapping, programmed stimulation and VT inducibility of excised hearts 5 wks after MI. The test is classed as in vivo, Sprague-Dawley rats. To be noted: for conduction heterogeneity vs control: all tested cycle lengths; for rise times of border zones vs control: significant at lowest PCL. How it is done:
After baseline echocardiography, thirty male Sprague-Dawley rats, ages 6-10 weeks, underwent myocardial infarction using an ischemia-reperfusion model. Briefly, rats were anesthetized using inhaled isoflurane (5% induction, 2.5% maintenance, O2 output 1 L/min) and positioned supine on an electrically warmed animal surgery platform. Rats were intubated using a 16-gauge i.v. catheter and then ventilated using a Harvard rodent respirator. After a left thoracotomy and pericardiotomy were performed, a 7-0 Ticron suture was introduced into the myocardium, using the left atrial appendage and right outflow tract as landmarks. The depth of entry was 2 mm, which was slightly greater than the level of the left coronary artery. Both suture ends were then threaded through a PE-90 polyethylene tube 6 in. in length to form a “snare loop” around the artery, closed by pulling on the free ends of the suture. […] The suture was then tightened to occlude the artery for 20 minutes and then removed to allow for reperfusion. The chest was then closed with 5-0 prolene suture, and the animal was allowed to recover. After one week and repeat echocardiography, rats were randomized to placebo rodent feed (control group, n=15) or rodent feed mixed with 1.2% pirfenidone (PFD) (treatment group, n=15) for four weeks. All experiments and data analyses were performed with the operator blinded to treatment group. Optical mapping is a technique to perform high-resolution electrophysiologic evaluation of the cardiac tissue. To summarize the procedure, ten thousand simultaneous optical action potentials were recorded with a 100×100 CMOS camera within a 19 mm×19 mm mapping field on the epicardium of the LV anterior wall. Using a 1000-W tungsten-halogen light source, fluorescence was excited with an excitation filter of 530 nm and transmitted with an emission long-pass filter of >630 nm. Fluorescent optical maps were acquired at 2000 Hz during programmed electrical stimulation. Optical mapping was performed 5 wks after MI. Rats were injected with heparin (500 U ip) 15 min before excision of the heart, and were then anesthetized with pentobarbital sodium (50 mg/kg ip). After adequate anesthesia, the heart was rapidly excised and arrested by immersion in cold cardioplegia solution. The aorta was cannulated and retrogradely perfused, at a rate of 6 mL/min, with 37° C. modified Tyrode solution containing (in mmol/L): 130 NaCl, 20.0 NaHCO3, 1.2 MgCl2, 4.0 KCl, 5.6 glucose, and 1.8 CaCl2, gassed with 95% 02/5% C02. Extraneous tissue was carefully removed from the heart. The cannulated heart was then placed in 37° C. Tyrode solution in a specialized temperature-controlled optical recording chamber (maintained at 37° C.) while ECG, perfusion rate, and temperature were measured continuously for the duration of the experiment. Before optical recordings, Tyrode solution containing voltage-sensitive dye PGH I (10 μL of 5 mM stock solution) was perfused through the preparation over a 5-min period. Once a cannulated heart was perfused with PGH I, it was placed in the optical chamber with its LV anterior wall pressed against the imaging window. […] During optical recordings, contractility was blocked with 15 mM butadione monoxime (BDM). Ventricular epicardium bipolar pacing, at a stimulus amplitude of 2× threshold, was performed on normal tissue near the infarct zone. Mapping was recorded during pacing drives of 250 ms to 90 ms (decremented by 10 ms), as well as during S1-S2 pacing using a basic cycle length (BCL) of 200 ms and maximum S2 of 150 ms and decremented by 10 ms. Programmed stimulation, with up to three extrastimuli, and burst pacing (from 90 ms to 60 ms) were used to assess arrhythmia inducibility. Inducibility was defined as the ability to provoke sustained (>30 s) ventricular tachycardia (VT) or ventricular fibrillation. Maps were also captured during programmed stimulation and with all episodes of arrhythmia. […]

Test [3] relates to TNF-α, TGF-β1, bFGF, PDGF, and EGF. To be noted: literature report; cited from earlier work.

“And” between values parts separate entries of the source, which are not always exact repeats. Equal values may be shown once.

Turning to `Cc1ccc(=O)n(-c2ccccc2)c1` [pirfenidone], in test [1] (1 week post-MI, at randomization before treatment), the “LV ejection fraction at 1 week” value was determined as 54%. Moreover, the “LV ejection fraction at 5 weeks” value in test [1] turned out to be 45%; in test [1] (listed as PFD), 36±15%. Moreover, the “LV ejection fraction, starting value of the decline” value in test [1] (baseline echocardiography, before treatment) is listed as 66±5%. In addition, the “percent decrease in ejection fraction from week 1 to week 5” value in test [1] (treatment period, feed with 1.2% pirfenidone, controls 24.3%, p=0.005) is 8.6% and 8%. Further, the “fluorescence amplitude in the border zones vs control” value in test [2] was “trend toward higher amplitudes”. The “decrease in VT susceptibility vs control” value in test [2] (5 wks after MI) was “almost three-fold decrease”. Besides, the “rate of VT induction” value in test [2] (5 wks after MI, controls 73.3%, p=0.027) turned out to be 28.6%. For the same compound, in test [2] (all pacing cycle lengths, p<0.05), the “conduction velocities in the border zones vs control” value is listed as “significantly faster”. For the same compound, the “conduction heterogeneity vs control” value in test [2] (p=0.146) is recorded as “trend toward lower conduction heterogeneity”; in test [2] (p=0.146, listed as PFD) it was “trend toward higher conduction heterogeneity indices in control animals”. The “maximal rate of AP rise (dF/dt) of border zones vs control” value in test [2] (trend at all PCLs) was “faster than the rise of control border zones”. The “rise times of border zones vs control” value in test [2] (trend at all PCLs) is recorded as “shorter”; in test [2] (trend at all PCLs, listed as PFD), “lower than those of control border zones”. Further, the “biosynthesis or release of various cytokines such as TNF-α, TGF-β1, bFGF, PDGF, and EGF” value in test [3] is recorded as “inhibit excessive biosynthesis or release”. The collagen expression result in test [3] is recorded as “decrease collagen expression”.
